“Also recorded” adds a separate entry of the source. Where two headings read alike, the source gives them in different places.
How the values were obtained:
HEK 293 F cells = test: Viability assays (CellTiter-Glo, ATP); assay type: cell-based; conditions: for IC50: viable cells by ATP quantitation, 3 days incubation, Figure 2 says B2-17 cells, method says HEK 293 F cells, read-out: IC50 (relative half maximal growth inhibitory concentration)
From the text: (§1) To identify novel small molecules targeting gene repression, we devised an image-based high-throughput screening system using the engineered HEK 293 F cell (termed as B2-17 cells) as report cell line. A chemical library containing 308,251 small molecules was screened in this system. Purposed for unbiased compound screening, this library had been used in a variety of studies (Sun et al., [2012]; Wang et al., [2013]; Dong et al., [2015]; Li et al., [2016]). Hundred and fifty eight compounds which reactivated reporter genes in more than half of cells were selected as hits. Next, we performed titration experiments for all these hits in the B2-17 cell line. The efficacy of each compound was evaluated by its maximal percentage of EGFP^+ cells in the dose-response curve (maximal RGFP) and relative half maximal effect concentration (EC50). The toxicity of the hits was also tested in parallel, measured by number of viable cells in each treatment. The assay is based on quantitative analysis of ATP, an indicator of metabolically active cells. For each compound, we calculated the relative half maximal growth inhibitory concentration (IC50), based on the abovementioned assay.
HEK 293 F cells were plated in 384-well, flat-bottom, tissue culture dishes (Corning) and treated with compounds, incubated 3 days, and assayed for viability using the CellTiter-Glo Luminescent Cell Viability Assay (Promega) according to the manufacturer's protocol. The […] with an EnSight plate reader (Perkin Elmer). Data were normalized to the untreated control (100% viability). Each treatment was tested in two independent assays, each containing 3 replicates. The titration-viability curves of each compound were also generated by using Origin 6.0 Pro software.

[1] = test system: EGFP reporter gene silenced by DNA methylation (B2-17 cells); test: Compound effective assay: derepression of EGFP reporter in B2-17 reporter cells (image-based, titration); assay type: cell-based; conditions: for Maximal RGFP% (maximal percentage of EGFP+ cells in the dose-response curve) / Emax / EC50: B2-17 cells, 72 h treatment; for activity of derepressing the EGFP reporter gene silenced by DNA methylation (in words): compared with hit compound LX-3; for Emax: 72 h, read-out: Maximal RGFP% (maximal percentage of EGFP+ cells in the dose-response curve); for EC50: dose-response of EGFP+ cells, read-out: EC50 (relative half maximal effect concentration)
From the text: as §1
Procedure for cell culture and establishment of the reporter cell line were reported in our previously published paper (Li et al., [2018]).
Before plating cells, 384-well plates (ViewPlate, PerkinElmer) were coated with PDL (poly-D-lysine, Sigma). For each well, 1,300 B2-17 cells were plated by using a Matrix Wellmate microplate dispenser (Thermo Scientific). Then, 0.25 μL of compound was added to each well by using a versatile pipetting robot, the Biomek FX workstation (Beckman Coulter), to give a final compound concentration of 5 μM. After treatment for 72 h, the cell nuclei were stained by Hoechst 33342 (Sigma) before imaging.
The cells were imaged with Opera LX (PerkinElmer, three views per well by using 10 x (air) objective lens). Images were analyzed with the Columbus system, the mean percentage of EGFP+ cells (RGFP) was obtained to extrapolate the number of EGFP expressing cells and Hoechst-stained nuclei.
For the titration assay, the positive compounds were diluted in DMSO at concentrations ranging from 0.625 to 4 mM. Then, the B2-17 cells were treated by gradient compound and imaged as described before.
For each compound, a dose-response series was generated by using Origin 6.0 Pro software. The dot plot was fit by a DoseResp curve and then the EC50 was calculated.

In the case of “2-(4-bromophenyl)-1-(2-(thiazol-2-yl)-4H-benzo[4,5] imidazo[1,2-b][1,2,4]triazol-4-yl)ethan-1-one [31b]”, the IC50 (HEK 293 F cells) is reported as 11.5 µM, the “Maximal RGFP% (maximal percentage of EGFP+ cells in the dose-response curve)” value [1] is reported as 6.0% and the “activity of derepressing the EGFP reporter gene silenced by DNA methylation (in words)” value (shortened to “activity”) [1] is reported as “loss of activity”.
For “3-(4-bromophenyl)-1-(2-(thiazol-2-yl)-4H-benzo[4,5] imidazo[1,2-b][1,2,4]triazol-4-yl)propan-1-one [31c]”, the IC50 (HEK 293 F cells) was 15.9 µM, the “Maximal RGFP% (maximal percentage of EGFP+ cells in the dose-response curve)” value [1] was 9.0% and the “activity” value [1] was “loss of activity”.
In the case of O=C(Cn1c2ccccc2n2nc(-c3cccs3)nc12)c1ccccc1 [7a, 1-phenyl-2-(2-(thiophen-2-yl)-4H-benzo[4,5]imidazo[1,2-b][1,2,4]triazol-4-yl)ethan-1-one], the IC50 (HEK 293 F cells; HEK293F, 72 h) is reported as 1.9 µM, the Emax [1] is reported as 7% and the “activity” value [1] is reported as “lost”.
Compound COc1ccc(C(=O)Cn2c3ccccc3n3nc(-c4cccs4)nc23)cc1 [7b, 1-(4-methoxyphenyl)-2-(2-(thiophen-2-yl)-4H-benzo[4,5]imidazo[1,2-b][1,2,4]triazol-4-yl)ethan-1-one] has an IC50 (HEK 293 F cells; HEK293F, 72 h) of 3.1 µM, an Emax [1] of 23% and an EC50 [1] of 6.2 µM. For the same compound, the “activity” value [1] was “decreased to some extent”.
O=C(Cn1c2ccccc2n2nc(-c3cccs3)nc12)c1ccc([N+](=O)[O-])cc1 [7c, 1-(4-nitrophenyl)-2-(2-(thiophen-2-yl)-4H-benzo[4,5]imidazo[1,2-b][1,2,4]triazol-4-yl)ethan-1-one] showed an IC50 (HEK 293 F cells; HEK293F, 72 h) of 11.9 µM, an Emax [1] of 41% and an EC50 [1] of 14.9 µM. The “activity” value [1] was “decreased to some extent”.
In the case of COC(=O)c1ccc(C(=O)Cn2c3ccccc3n3nc(-c4cccs4)nc23)cc1 [7d, methyl 4-(2-(2-(thiophen-2-yl)-4H-benzo[4,5]imidazo[1,2-b][1,2,4]triazol-4-yl)acetyl)benzoate], the IC50 (HEK 293 F cells; HEK293F, 72 h) is reported as 10.2 µM, the “toxicity (in words)” value (HEK 293 F cells; compared with hit compound LX-3) is reported as “less toxicity” and the Emax [1] is reported as 73%. The EC50 [1] was 2.4 µM and the “activity” value [1] was “significantly increased; also recorded: slightly better activity”.
For O=C(Cn1c2ccccc2n2nc(-c3cccs3)nc12)c1ccc(C(F)(F)F)cc1 [7e, 2-(2-(thiophen-2-yl)-4H-benzo[4,5]imidazo[1,2-b][1,2,4]triazol-4-yl)-1-(4-(trifluoromethyl)phenyl)ethan-1-one], the IC50 (HEK 293 F cells; HEK293F, 72 h) was 4.7 µM, the Emax [1] was 81% and the EC50 [1] was 3.7 µM. The “activity” value [1] was “remained the same”.
For O=C(Cn1c2ccccc2n2nc(-c3cccs3)nc12)c1ccc(F)cc1F [7f, 1-(2,4-difluorophenyl)-2-(2-(thiophen-2-yl)-4H-benzo[4,5]imidazo[1,2-b][1,2,4]triazol-4-yl)ethan-1-one], the IC50 (HEK 293 F cells; HEK293F, 72 h) was 17.8 µM, the Emax [1] was 16% and the “activity” value [1] was “significantly decreased”.
In the case of O=C(Cn1c2ccccc2n2nc(-c3cccs3)nc12)c1c(F)c(F)c(F)c(F)c1F [7g, 1-(perfluorophenyl)-2-(2-(thiophen-2-yl)-4H-benzo[4,5]imidazo[1,2-b][1,2,4]triazol-4-yl)ethan-1-one], the IC50 (HEK 293 F cells; HEK293F, 72 h) is reported as 1.1 µM, the Emax [1] is reported as 10% and the “activity” value [1] is reported as “significantly decreased”.
For O=C(Cn1c2ccccc2n2nc(-c3cccs3)nc12)c1ccc(O)cc1 [7h, 1-(4-hydroxyphenyl)-2-(2-(thiophen-2-yl)-4H-benzo[4,5]imidazo[1,2-b][1,2,4]triazol-4-yl)ethan-1-one], the IC50 (HEK 293 F cells; HEK293F, 72 h) was 16.7 µM, the Emax [1] was 56% and the EC50 [1] was 5.8 µM. The “activity” value [1] was “decreased to some extent”.
With Nc1ccc(C(=O)Cn2c3ccccc3n3nc(-c4cccs4)nc23)cc1 [7i, 1-(4-aminophenyl)-2-(2-(thiophen-2-yl)-4H-benzo[4,5]imidazo[1,2-b][1,2,4]triazol-4-yl)ethan-1-one] the IC50 (HEK 293 F cells; HEK293F, 72 h) was 5.3 µM, the Emax [1] was 19% and the “activity” value [1] was “decreased to some extent”.
With O=C(O)c1ccc(C(=O)Cn2c3ccccc3n3nc(-c4cccs4)nc23)cc1 [7j, 4-(2-(2-(thiophen-2-yl)-4H-benzo[4,5]imidazo[1,2-b][1,2,4]triazol-4-yl)acetyl)benzoic acid] the IC50 (HEK 293 F cells; HEK293F, 72 h) was 4.8 µM, the Emax [1] was 7% and the “activity” value [1] was “decreased to some extent”.
O=C(Cn1c2ccccc2n2nc(-c3cccs3)nc12)c1nccs1 [9a, 1-(thiazol-2-yl)-2-(2-(thiophen-2-yl)-4H-benzo[4,5]imidazo[1,2-b][1,2,4]triazol-4-yl)ethan-1-one] gave an IC50 (HEK 293 F cells; HEK293F, 72 h) of 8.7 µM, an Emax [1] of 30% and an EC50 [1] of 4.7 µM.
O=C(Cn1c2ccccc2n2nc(-c3cccs3)nc12)c1ccco1 [9b, 1-(furan-2-yl)-2-(2-(thiophen-2-yl)-4H-benzo[4,5]imidazo[1,2-b][1,2,4]triazol-4-yl)ethan-1-one] gave an Emax [1] of 6.6%.
Work on O=C(Cn1c2ccccc2n2nc(-c3cccs3)nc12)c1cccs1 [9c, 1-(thiophen-2-yl)-2-(2-(thiophen-2-yl)-4H-benzo[4,5]imidazo[1,2-b][1,2,4]triazol-4-yl)ethan-1-one] yielded an IC50 (HEK 293 F cells; HEK293F, 72 h) of 4.9 µM, an Emax [1] of 40% and an EC50 [1] of 2.3 µM.
Compound O=C(Cn1c2ccccc2n2nc(-c3cccs3)nc12)c1ccncc1 [9d, 1-(pyridin-4-yl)-2-(2-(thiophen-2-yl)-4H-benzo[4,5]imidazo[1,2-b][1,2,4]triazol-4-yl)ethan-1-one] has an IC50 (HEK 293 F cells; HEK293F, 72 h) of 6.5 µM, an Emax [1] of 35% and an EC50 [1] of 13.6 µM.
Cc1cc2c(cc1C)n1nc(-c3cccs3)nc1n2CC(=O)c1ccc(Br)cc1 [14a, 1-(4-bromophenyl)-2-(6,7-dimethyl-2-(thiophen-2-yl)-4H-benzo[4,5]imidazo[1,2-b][1,2,4]triazol-4-yl)ethan-1-one] showed an IC50 (HEK 293 F cells; HEK293F, 72 h) of 3.9 µM, an Emax [1] of 26% and an EC50 [1] of 28 µM. The “activity” value [1] was “significantly decreased”.
Compound O=C(Cn1c2ccc(Br)cc2n2nc(-c3cccs3)nc12)c1ccc(Br)cc1 [17a, 2-(7-bromo-2-(thiophen-2-yl)-4H-benzo[4,5]imidazo[1,2-b][1,2,4]triazol-4-yl)-1-(4-bromophenyl)ethan-1-one] has an IC50 (HEK 293 F cells; HEK293F, 72 h) of 6.6 µM, an Emax [1] of 41% and an EC50 [1] of 19.4 µM. For the same compound, the “activity” value [1] was “significantly decreased”.
In the case of O=C(Cn1c2ccc(Br)cc2n2nc(-c3ccc(Br)s3)nc12)c1ccc(Br)cc1 [17c, 2-(7-bromo-2-(5-bromothiophen-2-yl)-4H-benzo[4,5]imidazo[1,2-b][1,2,4]triazol-4-yl)-1-(4-bromophenyl)ethan-1-one], the IC50 (HEK 293 F cells; HEK293F, 72 h) is reported as 3.8 µM, the Emax [1] is reported as 28% and the EC50 [1] is reported as 21.8 µM.
With O=C(Cn1c2ccccc2n2nc(-c3ccccc3)nc12)c1ccc(Br)cc1 [22a, 1-(4-bromophenyl)-2-(2-phenyl-4H-benzo[4,5]imidazo[1,2-b][1,2,4]triazol-4-yl)ethan-1-one] the IC50 (HEK 293 F cells; HEK293F, 72 h) was 4.4 µM, the Emax [1] was 6% and the “activity” value [1] was “decreased significantly or even disappeared”.
Compound CC(C)(C)c1nc2n(CC(=O)c3ccc(Br)cc3)c3ccccc3n2n1 [22g, 1-(4-bromophenyl)-2-(2-(tert-butyl)-4H-benzo[4,5]imidazo[1,2-b][1,2,4]triazol-4-yl)ethan-1-one] has an IC50 (HEK 293 F cells; HEK293F, 72 h) of 8.3 µM.
For N#Cc1ccc(-c2nc3n(CC(=O)c4ccc(Br)cc4)c4ccccc4n3n2)s1 [compound 27, 5-(4-(2-(4-bromophenyl)-2-oxoethyl)-4H-benzo[4,5]imidazo[1,2-b][1,2,4]triazol-2-yl)thiophene-2-carbonitrile], the Emax [1] was 6% and the “activity” value [1] was “significant decrease or disappearance”.

From paper PMC6309140, “Synthesis and Evaluation of a New Type of Small Molecule Epigenetic Modulator Containing Imidazo[1,2-b][1,2,4]triazole Motif” (Frontiers in Chemistry, 2018)
